Measurements as given in ChEMBL document CHEMBL6109069 (J Med Chem, 2025).
Active and inactive are the calls of the source. No cut-off for these calls is given here. Starred links: 1 amine or outer side, 2 acyl side, 3 side chain; linkers in the order of their positions; H or OH if unused. Non-standard residues stand in square brackets, D forms with d. Residues, ends and D or L forms follow the SMILES beside them. *: point of attachment. X1 = CCC(=O)C[C@@H](O)C[C@@H](C)C[C@H](N[*:1])C(=O)[*:2]; Hexenoyl(2E,4S-Me) = CC[C@H](C)/C=C/C(=O)*; Leu(3R-OH) = CC(C)[C@@H](O)[C@H](N)C(=O)O; NH((S)CH(Me)CH2NMe2) = C[C@@H](CN(C)C)N*; Pro(4S-Me) = C[C@@H]1CN[C@H](C(=O)O)C1; NH(1-CH2NMe2-cBu) = CN(C)CC1(N*)CCC1; Benzoyl(4-F) = O=C(c1ccc(F)cc1)*; hCha = N[C@@H](CCC1CCCCC1)C(=O)O; Aib = CC(C)(N)C(=O)O; βAla = NCCC(=O)O

Legend:
[1] = Toxicity in ip dosed mouse assessed as lethal dose; format: organism-based; details: in vivo
[2] = Toxicity in po dosed mouse assessed as lethal dose; format: organism-based; details: in vivo
[3] = Cytotoxicity against rat L6 cells; format: toxicity, cell-based
[4] = Inhibition of yeast ATP synthase assessed as inhibition constant by Michaelis-Menten plot analysis; design: species or system Saccharomyces cerevisiae
[5] = Inhibition of Bovine heart ATP synthase assessed as inhibition constant by Michaelis-Menten plot analysis; design: species or system Bos taurus; details: read-out: Ki
[6] = Inhibition of Escherichia coli ATP synthase assessed as inhibition constant
[7] = test system: Mitochondrial membrane; test: Induction of mitochondrial membrane hyperpolarization in bovine heart assessed as change in fluorescence intensity at 25 nM by safranin O staining based eclipse fluorescence spectrophotometric analysis; format: cell membranes; details: Bos taurus
[8] = test system: Fibroblast; test: Inhibition of ATP synthase in human Fibroblast cells assessed as decrease in oxygen consumption at 50 nM by OROBOROS instrument based analysis; format: cell-based
[9] = test system: Fibroblast; test: Induction of mitochondrial uncoupling activity in human Fibroblast cells assessed as increase in oxygen consumption rate by measuring fluorescence intensity by O2k-type oxygraph analysis; format: functional, cell-based
[10] = test system: Trypanosoma brucei; test: Induction of mitochondrial uncoupling activity in Trypanosoma brucei assessed as increase in oxygen consumption rate by measuring fluorescence intensity by O2k-type oxygraph analysis; format: functional, organism-based
[11] = Reduction in respiration rate in human Fibroblast cells assessed as decrease in coupling efficiency at 50 nM incubated up to 80 mins; format: functional; design: scale not given: the % may be the effect or the level left; details: 1.333 h
[12] = test system: Trypanosoma cruzi; test: Antitrypanosomal activity against Trypanosoma cruzi Tulahuen C4 incubated for 4 days; format: functional, organism-based; details: Tulahuen C4, 96 h
[13] = test system: Leishmania donovani; test: Antitrypanosomal activity against Leishmania donovani MHOM/ET/67/L82 incubated for 72 hrs by resazurin staining based analysis; format: functional, organism-based; details: MHOM/ET/67/L82, 72 h
[14] = test system: Plasmodium falciparum; test: Antiplasmodial activity against Plasmodium falciparum NF54 incubated for 48 hrs; format: functional, organism-based; details: NF54, 48 h
[15] = test system: Trypanosoma brucei rhodesiense; test: Antitrypanosomal activity against Trypanosoma brucei rhodesiense STIB 900; format: functional, organism-based
[16] = Cytotoxicity against rat L6 cells assessed as cell viability; format: toxicity, cell-based
[17] = test system: Lipid bilayer; test: Disruption of membrane integrity in bacterial cell membrane mimic POPC/POPG LUVs assessed as calcein leakage at 1.3 uM measured for 1 mins by fluorescence spectroscopy analysis
[18] = test system: Lipid bilayer; test: Disruption of membrane integrity in bacterial cell membrane mimic POPC/POPG LUVs assessed as HTPS leakage at 1 uM measured for 1 mins by fluorescence spectroscopy analysis
[19] = test system: Lipid bilayer; test: Disruption of membrane integrity in bacterial cell membrane mimic POPC/POPG LUVs assessed as HTPS leakage at 5 uM measured for 1 mins by fluorescence spectroscopy analysis
[20] = test system: Fibroblast; test: Induction of mitochondrial uncoupling activity in human Fibroblast cells assessed as increase in oxygen consumption rate by measuring fluorescence intensity at 25 nM measured up to 80 mins by O2k-type oxygraph analysis; format: functional, cell-based
[21] = test system: Mitochondrial membrane; test: Induction of mitochondrial membrane depolarization in bovine heart assessed as change in fluorescence intensity at 25 nM by safranin O staining based eclipse fluorescence spectrophotometric analysis; format: cell membranes; details: Bos taurus
[22] = test system: Mitochondrial membrane; test: Induction of mitochondrial membrane potential in bovine heart assessed as change in fluorescence intensity at 200 nM by safranin O staining based eclipse fluorescence spectrophotometric analysis; format: cell membranes; details: Bos taurus
[23] = test system: Mitochondrial membrane; test: Induction of mitochondrial membrane depolarization in bovine heart assessed as change in fluorescence intensity at 100 to 200 nM by safranin O staining based eclipse fluorescence spectrophotometric analysis; format: cell membranes; details: Bos taurus, dose 100-200 nM
[24] = test system: Trypanosoma brucei; test: Induction of mitochondrial uncoupling activity in Trypanosoma brucei assessed as increase in oxygen consumption rate by measuring fluorescence intensity at 25 nM measured up to 80 mins by O2k-type oxygraph analysis; format: functional, organism-based
[25] = test system: Lipid bilayer; test: Disruption of membrane integrity in bacterial cell membrane mimic POPC/POPG LUVs assessed as HTPS leakage at 5 uM measured after 1 mins

## CCC(=O)C[C@@H](O)C[C@@H](C)C[C@H](NC(=O)[C@@H]1C[C@H](C)CN1C(=O)/C=C/[C@@H](C)CC)C(=O)N[C@H](C(=O)NC(C)(C)C(=O)N[C@@H](CC(C)C)C(=O)N[C@@H](CC(C)C)C(=O)NC(C)(C)C(=O)NC(C)(C)C(=O)NCCC(=O)N[C@@H](C)CN(C)C)[C@H](O)C(C)C ({Hexenoyl(2E,4S-Me)}-[Pro(4S-Me)][X1][Leu(3R-OH)][Aib]LL[Aib][Aib][βAla]-{NH((S)CH(Me)CH2NMe2)})
[1]
  LD50: 1.8 mg/kg
[2]
  LD50: 5.4 mg/kg
[3]
  IC50: 0.259 µM
[4]
  Ki: ~0.03 µM
[5]
  Ki: 0.08 µM
[6]
  Ki: > 1 µM
[7]
  Activity: Active
[8]
  inhibition: Active
[9]
  Activity: Active
[10]
  Activity: Active
[11]
  Activity: ~60%
[12]
  IC50: 0.023 µM
[13]
  IC50: 0.0011 µM
[14]
  IC50: 0.00061 µM
[15]
  IC50: 0.00025 µM
[16]
  IC50: 0.259 µM
[17]
  Activity: Active
[18]
  Activity: inactive
[19]
  Activity: inactive

## CC(C)C[C@H](NC(=O)[C@H](CCC1CCCCC1)NC(=O)[C@@H]1CCCN1C(=O)c1ccc(F)cc1)C(=O)NC(C)(C)C(=O)N[C@@H](CC(C)C)C(=O)N[C@@H](CC(C)C)C(=O)NC(C)(C)C(=O)NC(C)(C)C(=O)NCCC(=O)NC1(CN(C)C)CCC1 ({Benzoyl(4-F)}-P[hCha]L[Aib]LL[Aib][Aib][βAla]-{NH(1-CH2NMe2-cBu)})
[20]
  Activity: inactive
[5]
  Ki: 0.265 µM
[6]
  Ki: ~0.26 µM
[21]
  Activity: Active
[22]
  Activity: Active
[23]
  Activity: Active
[24]
  Activity: inactive
[11]
  Activity: ~3%
[12]
  IC50: 0.114 µM
[13]
  IC50: 0.0049 µM
[14]
  IC50: 0.0054 µM
[15]
  IC50: 0.00039 µM
[17]
  Activity: Active
[25]
  Activity: Active
